Laboratory results taken from PMC4577729, “7-(Pyrazol-4-yl)-3H-imidazo[4,5-b]pyridine-based derivatives for kinase inhibition: Co-crystallisation studies with Aurora-A reveal distinct differences in the orientation of the pyrazole N1-substituent” (Bioorganic & Medicinal Chemistry Letters, 2015).

What was measured:
[1] = Human liver microsomal stability; format: in vitro ADME; conditions: percentage of compound metabolised after a 30 min incubation, human liver microsomes
Description: [18] MLM and HLM microsomal stabilities were determined as described in Ref. [12].

Aurora A = biological target: T1, Aurora A (Homo sapiens, UniProt O14965); experiment: Aurora-A autophosphorylation at T288 in HeLa cells; format: cell-based; conditions: read-out: p-T288 IC50 (Aurora-A autophosphorylation)
T1 sequence (O14965 1-403): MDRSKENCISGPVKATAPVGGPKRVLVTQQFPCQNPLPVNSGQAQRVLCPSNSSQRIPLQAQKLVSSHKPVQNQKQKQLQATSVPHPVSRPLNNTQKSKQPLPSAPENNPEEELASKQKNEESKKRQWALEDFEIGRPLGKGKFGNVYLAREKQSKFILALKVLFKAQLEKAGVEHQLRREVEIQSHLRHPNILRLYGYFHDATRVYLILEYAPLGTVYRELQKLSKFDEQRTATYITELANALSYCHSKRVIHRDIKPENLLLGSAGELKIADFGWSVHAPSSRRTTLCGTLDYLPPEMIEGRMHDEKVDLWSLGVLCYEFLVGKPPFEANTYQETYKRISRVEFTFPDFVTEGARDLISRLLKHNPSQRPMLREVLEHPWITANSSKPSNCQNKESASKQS
From the text: (§1) As part of our medicinal chemistry programme to discover selective inhibitors of Aurora-A,[12] we introduced the 1-benzyl-1H-pyrazol-4-yl moiety at C7 of the imidazo[4,5-b]pyridine scaffold to provide 7a (Table 1). We previously reported 1,3-dimethyl-1H-pyrazol-4-yl as a preferred substituent at the C2 position of the imidazo[4,5-b]pyridine scaffold[11] and this moiety was therefore incorporated into the design of 7a and analogues presented in this study. […] This in vitro profile prompted us to investigate this C7-pyrazole substituted imidazo[4,5-b]pyridine subseries in more detail. Firstly, we attempted to increase biochemical potency against Aurora-A, and also to improve microsomal stability.

Aurora B [2] = biological target: T2, Aurora B (Homo sapiens, UniProt Q96GD4); experiment: Histone H3 phosphorylation at S10 in HeLa cells; format: cell-based; conditions: read-out: p-HH3 IC50 (histone H3 phosphorylation at S10)
From the text: as §1

[3] = system: HCT116 human colon carcinoma cells; experiment: HCT116 cell growth inhibition; format: cell-based; conditions: 72 h incubation
From the text: as §1

[4] = Protein binding in microsomal incubations (MLM); format: in vitro ADME, mouse
Description: (§2) For a better understanding of the microsomal stability data, the protein binding for 7a, 7d and 7e in microsomal incubations was measured. The percentage of 7a unbound in MLM and HLM was determined as 6.71 and 4.89, respectively. Compounds 7d and 7e were more highly bound: for 7d the percentage unbound was 0.50 in both MLM and HLM and for 7e was 0.16 and 0.10, respectively. […] The potent cell-based activity prompted us to investigate kinome selectivity profiles for this class of compound by screening 7a and 7d in a 102-kinase panel at a concentration of 1 μM.[20] […] The Gini coefficient for compound 3 was reported as 0.719,[12] and the corresponding value for compound 1 is 0.560. To understand the potential for further improvement, we obtained the crystal structure of 7a bound to Aurora-A[22] (Fig. 3, Table S3, Supplementary data). […] Similar to crystal structures of previous compounds 1, 15 and 16 (Figs. 1 and 2; compounds 51 and 40c in Ref. [10], and compound 21a in Ref. [11], respectively) the N-benzyl substituent on the C7-pyrazole is oriented towards the P-loop, making Van der Waals contacts with Val147 and Gly142 (Fig. 3).

[5] = Protein binding in microsomal incubations (HLM); format: in vitro ADME, human
Description: as §2

[6] = In vivo mouse pharmacokinetic profiling
Description: (§3) The mouse plasma protein binding for 7a and 7d was determined as 99.48% and >99.9%, respectively. […] In an attempt to improve the aqueous solubility, the Aurora inhibitory potency and kinase selectivity of this sub-series, we explored the introduction of basic substituents such as 1-methylpiperazine and pyrrolidine as well as replacement of the phenyl ring with a more polar heterocycle. […] It was anticipated that the introduction of small substituents on the phenyl ring in 7a would be well tolerated without altering its orientation in the kinase active site. Alternatively, we envisaged that Thr217 in Aurora-A may be accessed via an appropriate pyrazole N1-benzyl derivatisation such as a bulky amido substituent, which would form a favourable hydrogen bond interaction with the side chain hydroxyl of Thr217. Similar approaches were previously applied by us in the design of selective inhibitors of Aurora-A.[12,16]

[7] = Mouse plasma protein binding; format: in vitro ADME
Description: as §3

Kinetic solubility = format: physicochemical; conditions: phosphate buffer, pH = 6.8
Description: as §3
[23] Solubility measurements were performed by Pharmorphix® Solid State Services, Member of the Sigma–Aldrich Group, Cambridge, UK.

Aurora B [8] = biological target: T2, Aurora B; experiment: Kinase selectivity profiling; format: biochemical; conditions: 1 µM, assay duplicates
Summary of the method: (§4)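 Each compound was tested at a single concentration of 1 µM within a broad panel of 102 or 105 protein kinases run by an external profiling centre.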

EPH-B4 = EPH-B4 (Homo sapiens, UniProt P54760); experiment: Kinase selectivity profiling; format: biochemical; conditions: 1 µM, assay duplicates
Summary of the method: as §4

CLK2 = CLK2 (Homo sapiens, UniProt P49760); experiment: Kinase selectivity profiling; format: biochemical; conditions: 1 µM, assay duplicates
Description: (§5) [20] Kinase selectivity profiling for compounds 7a, 7d, 14d and 14g was carried out at the International Centre for Protein Kinase Profiling, Division of Signal Transduction Therapy, University of Dundee.
(§6) Table S2: Kinase selectivity profiling of compounds 14d and 14g in a 105-kinase panel screened at a concentration of 1 µM.

DAPK1 = DAPK1 (Homo sapiens, UniProt P53355); experiment: Kinase selectivity profiling; format: biochemical; conditions: 1 µM, assay duplicates
Description: as §5, §6

EPH-B2 = EPH-B2 (Homo sapiens, UniProt P29323); experiment: Kinase selectivity profiling; format: biochemical; conditions: 1 µM, assay duplicates
Description: as §5, §6

T2 sequence (Q96GD4 whole entry): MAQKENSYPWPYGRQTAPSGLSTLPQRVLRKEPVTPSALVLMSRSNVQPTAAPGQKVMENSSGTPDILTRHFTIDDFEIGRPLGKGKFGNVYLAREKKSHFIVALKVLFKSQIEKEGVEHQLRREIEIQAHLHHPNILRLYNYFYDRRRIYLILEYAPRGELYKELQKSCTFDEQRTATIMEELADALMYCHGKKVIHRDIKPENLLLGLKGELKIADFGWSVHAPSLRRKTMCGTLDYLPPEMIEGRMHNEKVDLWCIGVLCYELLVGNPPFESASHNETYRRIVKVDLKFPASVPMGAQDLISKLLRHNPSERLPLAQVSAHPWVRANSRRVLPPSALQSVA
EPH-B2, sequence (P29323 19-1055): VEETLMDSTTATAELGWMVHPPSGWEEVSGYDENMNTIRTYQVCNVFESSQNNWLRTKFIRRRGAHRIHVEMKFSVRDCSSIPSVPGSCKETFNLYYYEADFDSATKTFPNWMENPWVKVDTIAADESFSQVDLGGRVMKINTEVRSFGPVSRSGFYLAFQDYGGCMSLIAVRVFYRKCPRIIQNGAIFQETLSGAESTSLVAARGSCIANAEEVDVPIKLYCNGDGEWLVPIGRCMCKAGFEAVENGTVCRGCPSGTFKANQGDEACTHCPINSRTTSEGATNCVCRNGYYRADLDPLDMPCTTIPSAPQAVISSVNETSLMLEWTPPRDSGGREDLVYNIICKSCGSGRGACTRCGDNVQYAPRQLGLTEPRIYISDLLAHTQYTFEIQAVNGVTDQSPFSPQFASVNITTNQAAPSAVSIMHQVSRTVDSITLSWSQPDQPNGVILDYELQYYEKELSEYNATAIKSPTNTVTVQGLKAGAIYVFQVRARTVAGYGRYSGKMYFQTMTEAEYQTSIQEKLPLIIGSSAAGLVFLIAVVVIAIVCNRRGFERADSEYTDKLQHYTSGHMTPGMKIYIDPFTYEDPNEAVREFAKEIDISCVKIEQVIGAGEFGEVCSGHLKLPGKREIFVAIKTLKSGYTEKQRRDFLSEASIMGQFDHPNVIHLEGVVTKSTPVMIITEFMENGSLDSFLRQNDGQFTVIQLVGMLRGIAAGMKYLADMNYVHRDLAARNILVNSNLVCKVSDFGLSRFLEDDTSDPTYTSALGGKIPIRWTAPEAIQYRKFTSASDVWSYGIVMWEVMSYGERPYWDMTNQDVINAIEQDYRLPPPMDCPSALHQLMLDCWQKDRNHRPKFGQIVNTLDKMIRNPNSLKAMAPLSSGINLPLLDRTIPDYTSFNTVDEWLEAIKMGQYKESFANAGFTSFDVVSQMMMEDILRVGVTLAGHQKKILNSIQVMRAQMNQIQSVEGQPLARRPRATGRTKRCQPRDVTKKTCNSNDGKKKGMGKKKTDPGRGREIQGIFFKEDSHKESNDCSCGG
EPH-B4, sequence (P54760 16-987): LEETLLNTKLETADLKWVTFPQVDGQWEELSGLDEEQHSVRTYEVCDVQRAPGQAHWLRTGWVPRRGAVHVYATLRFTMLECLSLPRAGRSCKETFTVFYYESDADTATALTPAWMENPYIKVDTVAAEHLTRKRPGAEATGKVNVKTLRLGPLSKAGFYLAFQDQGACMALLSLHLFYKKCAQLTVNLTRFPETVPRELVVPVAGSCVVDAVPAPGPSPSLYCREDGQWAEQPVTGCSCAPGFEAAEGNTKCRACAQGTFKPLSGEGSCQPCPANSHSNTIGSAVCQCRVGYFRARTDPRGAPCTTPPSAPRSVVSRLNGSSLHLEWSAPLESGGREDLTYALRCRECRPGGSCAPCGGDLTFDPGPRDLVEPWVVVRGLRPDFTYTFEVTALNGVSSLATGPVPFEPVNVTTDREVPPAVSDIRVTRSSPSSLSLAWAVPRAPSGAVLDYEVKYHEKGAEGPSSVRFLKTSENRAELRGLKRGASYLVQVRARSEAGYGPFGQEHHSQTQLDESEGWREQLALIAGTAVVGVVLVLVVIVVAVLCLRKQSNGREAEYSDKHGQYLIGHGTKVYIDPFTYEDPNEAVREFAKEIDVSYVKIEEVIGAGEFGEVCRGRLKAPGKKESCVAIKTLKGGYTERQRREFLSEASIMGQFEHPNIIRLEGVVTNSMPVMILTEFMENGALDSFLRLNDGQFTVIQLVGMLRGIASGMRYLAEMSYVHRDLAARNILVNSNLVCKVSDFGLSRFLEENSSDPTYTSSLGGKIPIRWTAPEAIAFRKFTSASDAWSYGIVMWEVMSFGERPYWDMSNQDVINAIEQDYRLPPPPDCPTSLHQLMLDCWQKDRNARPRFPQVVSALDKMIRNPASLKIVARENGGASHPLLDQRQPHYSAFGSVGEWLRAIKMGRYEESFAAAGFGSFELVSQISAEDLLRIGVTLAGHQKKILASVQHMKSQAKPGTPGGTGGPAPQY
CLK2, sequence (P49760 whole entry): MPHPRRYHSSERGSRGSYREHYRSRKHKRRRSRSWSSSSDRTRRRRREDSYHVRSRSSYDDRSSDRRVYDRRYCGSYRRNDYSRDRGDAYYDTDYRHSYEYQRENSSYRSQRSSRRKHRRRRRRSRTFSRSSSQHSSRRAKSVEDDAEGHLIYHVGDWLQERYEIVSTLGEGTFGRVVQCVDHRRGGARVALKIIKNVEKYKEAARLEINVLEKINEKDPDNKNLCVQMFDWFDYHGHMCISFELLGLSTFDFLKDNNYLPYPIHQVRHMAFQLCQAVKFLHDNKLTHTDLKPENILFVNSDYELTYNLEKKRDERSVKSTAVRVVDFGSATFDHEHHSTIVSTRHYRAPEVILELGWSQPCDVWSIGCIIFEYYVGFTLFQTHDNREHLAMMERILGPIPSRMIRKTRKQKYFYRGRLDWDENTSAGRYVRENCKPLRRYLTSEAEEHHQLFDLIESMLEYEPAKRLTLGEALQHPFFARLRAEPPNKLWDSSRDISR
DAPK1, sequence (P53355 whole entry): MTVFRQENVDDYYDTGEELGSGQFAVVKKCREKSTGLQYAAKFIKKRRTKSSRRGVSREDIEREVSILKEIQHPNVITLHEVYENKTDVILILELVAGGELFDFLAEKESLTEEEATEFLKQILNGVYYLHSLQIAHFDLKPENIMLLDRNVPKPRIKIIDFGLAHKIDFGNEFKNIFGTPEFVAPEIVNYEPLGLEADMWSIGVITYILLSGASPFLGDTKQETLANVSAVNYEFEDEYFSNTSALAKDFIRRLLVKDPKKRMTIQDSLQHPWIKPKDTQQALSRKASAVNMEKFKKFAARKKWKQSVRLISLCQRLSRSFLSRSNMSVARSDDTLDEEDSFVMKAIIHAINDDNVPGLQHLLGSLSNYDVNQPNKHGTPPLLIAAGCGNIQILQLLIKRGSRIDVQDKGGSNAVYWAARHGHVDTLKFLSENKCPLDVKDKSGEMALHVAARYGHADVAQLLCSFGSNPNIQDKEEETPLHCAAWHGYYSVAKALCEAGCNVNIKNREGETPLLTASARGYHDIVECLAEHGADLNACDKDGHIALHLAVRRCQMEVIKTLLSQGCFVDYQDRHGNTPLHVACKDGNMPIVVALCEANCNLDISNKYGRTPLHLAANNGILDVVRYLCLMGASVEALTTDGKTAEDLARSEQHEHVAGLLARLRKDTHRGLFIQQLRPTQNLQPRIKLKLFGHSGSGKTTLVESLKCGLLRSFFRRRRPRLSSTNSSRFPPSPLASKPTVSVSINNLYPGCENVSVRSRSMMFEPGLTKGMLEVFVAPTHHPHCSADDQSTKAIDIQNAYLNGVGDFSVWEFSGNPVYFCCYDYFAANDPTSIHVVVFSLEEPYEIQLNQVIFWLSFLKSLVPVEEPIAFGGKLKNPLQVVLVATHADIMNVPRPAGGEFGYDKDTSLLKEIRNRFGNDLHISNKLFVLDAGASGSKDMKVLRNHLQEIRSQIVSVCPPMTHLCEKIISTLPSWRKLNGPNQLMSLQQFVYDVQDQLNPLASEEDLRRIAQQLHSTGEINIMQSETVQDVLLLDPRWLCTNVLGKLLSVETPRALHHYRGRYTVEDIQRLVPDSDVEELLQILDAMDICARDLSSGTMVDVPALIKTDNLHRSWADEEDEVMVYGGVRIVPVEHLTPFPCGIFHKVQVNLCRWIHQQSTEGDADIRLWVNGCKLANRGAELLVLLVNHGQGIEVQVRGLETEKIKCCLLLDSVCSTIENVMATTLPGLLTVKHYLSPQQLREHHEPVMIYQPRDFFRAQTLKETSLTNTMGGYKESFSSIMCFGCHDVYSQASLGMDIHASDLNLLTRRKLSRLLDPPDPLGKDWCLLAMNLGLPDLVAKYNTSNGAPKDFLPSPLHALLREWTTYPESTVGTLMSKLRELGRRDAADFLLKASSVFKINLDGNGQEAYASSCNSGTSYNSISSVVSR

Compound | HLM % met/30 min [1] [%] | IC50 (Aurora A) [µM] | IC50 (Aurora B [2]) [µM] | GI50 [3] [µM] | percentage unbound in MLM [4] [%] | percentage unbound in HLM [5] [%] | oral bioavailability [6] [%] | mouse plasma protein binding [7] [%] | kinetic solubility (Kinetic solubility) [µg/mL] | Aurora B % activity remaining (Aurora B [8]) [%] | EPH-B4 % activity remaining (EPH-B4) [%] | CLK2 % activity remaining (CLK2) [%] | DAPK1 % activity remaining (DAPK1) [%] | EPH-B2 % activity remaining (EPH-B2) [%]
Cc1nn(C)cc1-c1nc2c(-c3cnn(Cc4ccccc4)c3)c(Cl)cnc2[nH]1 [Compound 7a] | 43 | 0.087 | 0.223 | 0.15 | 6.71 | 4.89 | 13 | 99.48 | < 0.1 |  |  |  |  | 
Cc1cc(Cn2cc(-c3c(Cl)cnc4[nH]c(-c5cn(C)nc5C)nc34)cn2)no1 [Compound 14d] | 37 |  |  | 0.34 |  |  |  |  |  | 8 | 86 | 2 | 24 | 60
